These are literature values, as cited in paper PMC6008299, “Impact of race on dose selection of molecular-targeted agents in early-phase oncology trials” (British Journal of Cancer, 2018).

One may read the Tmax as the time from dosing to the highest level. A word on the Cmax: it is the peak of the concentration-time curve.

The conditions of data set [1]: cited from earlier work.
Data set [2] has as its system patients with solid tumours. Set-up: method as in PMID 15955900. Conditions: recommended phase 2 dose; ref [11]–[44]; cited from earlier work.
For data set [3] the following is noted: Asian, at the MTD, ref not given, cited from earlier work.
Data set [4] concerns patients with solid tumours. Further details: method as in PMID 15955900. The conditions noted are these: recommended phase 2 dose; ref [11]–[44]; cited from earlier work. This is another data set of the same source.
The test system of data set [5] is patients with solid tumours. Conditions: dose at which PK is compared; ref not given; cited from earlier work.
[6] abbreviates: at the MTD, Day 1, ref not given.
Where [7] appears, read: at the MTD, Day 28, ref not given.
The mark [8] stands for this setting: at the MTD, Day 15, ref not given.
[9] abbreviates: at the MTD, Day 8, ref not given.
Setting [10] is: at the MTD, Day 23 or 24, ref not given.
Setting [11] is: at the MTD, Day 21, ref not given.

Read-outs that look alike come from different tables or passages of the source. Marks after values point to notes of the source that are not given here.

On to `CN(C)C/C=C/C(=O)Nc1cc2c(Nc3ccc(F)c(Cl)c3)ncnc2cc1O[C@H]1CCOC1` [Afatinib], for which the “AUC0-∞” value in data set [1] (Caucasian, at the MTD, Day 1 (footnote *), ref not given) is 762* ng·h/mL. Moreover, the T1/2 in data set [1] (setting [6]) is given as 21.9 h; in data set [1] (setting [7]), 22.3 h; in data set [3] (Day 1), 14.8 h; in data set [3] (Day 28) it was 33.5 h. Further, the figures for the time of peak concentration (Tmax) in data set [1] (setting [6]) and in data set [1] (setting [7]) were 5.08 h and 5.00 h, respectively. The AUC0-24 in data set [1] (setting [7]) was 598 ng·h/mL; in data set [3] (Day 1), 539 ng·h/mL; in data set [3] (Day 28), 1010 ng·h/mL. In data set [2], the “RP2D (Western)” value is on record as 50 mg QD. Also, the “RP2D (Japan)” value in data set [4] is given as 50 mg QD. Moreover, in data set [5], the MTD was 50 mg QD.

Regarding `CNC(=O)c1ccccc1Sc1ccc2c(/C=C/c3ccccn3)n[nH]c2c1` [Axitinib], the AUC0-24 in data set [1] (setting [6]) is 188 ng·h/mL; in data set [1] (setting [8]) it was 258 ng·h/mL; in data set [3] (Day 1) it was 142 ng·h/mL; in data set [3] (Day 15) it was 138 ng·h/mL. Moreover, the Cmax in data set [1] (setting [6]) is reported as 22 ng/mL; in data set [1] (setting [8]) it was 27 ng/mL; in data set [3] (Day 1), 17.0 ng/mL; in data set [3] (Day 15), 21.4 ng/mL. Further, the T1/2 is reported as 2.3 h in data set [1] (setting [6]), 2.3 h in data set [1] (setting [8]), 4.8 h in data set [3] (Day 1) and 4.04 h in data set [3] (Day 15). For the same compound, the time of peak concentration (Tmax) is 3.2 h in data set [1] (setting [6]), 2.4 h in data set [1] (setting [8]), 4.10 h in data set [3] (Day 1) and 1.37 h in data set [3] (Day 15). In addition, in data set [2], the “RP2D (Western)” value is on record as 5 mg BID. In addition, in data set [4], the “RP2D (Japan)” value is recorded as 5 mg BID. Moreover, the MTD in data set [5] is 5 mg BID.

With `Cc1cc(Nc2ncc(Cl)c(Nc3ccccc3S(=O)(=O)C(C)C)n2)c(OC(C)C)cc1C1CCNCC1` [Ceritinib], in data set [1] (setting [9]), the AUC0-24 is recorded as 16,500±4750 ng·h/mL, the peak concentration (Cmax) is 800 ± 205 ng/mL, the T1/2 is reported as 41 h and the time to peak (Tmax) is 4 to 6 h. Also, in data set [2], the “RP2D (Western)” value is recorded as 750 mg QD. Moreover, in data set [3] (Day 8), the AUC0-24 was 25700 ng·h/mL, the Cmax was 1220 ng/mL and the time to peak (Tmax) is given as 6.96 h. Besides, the “RP2D (Japan)” value in data set [4] is on record as 750 mg QD. In data set [5], the MTD is on record as 750 mg QD.

`C[C@@H](Oc1cc(-c2cnn(C3CCNCC3)c2)cnc1N)c1c(Cl)ccc(F)c1Cl` [Crizotonib]: the “RP2D (Western)” value in data set [2] is on record as 250 mg BID. In data set [4], the “RP2D (Japan)” value is listed as 250 mg BID.

For the compound `C#Cc1cccc(Nc2ncnc3cc(OCCOC)c(OCCOC)cc23)c1` [Erlotinib], in data set [1] (setting [6]), the AUC0-24 was 16510 ± 11020 ng·h/mL, the maximum concentration (Cmax) was 1136 ± 865 ng/mL and the T1/2 is 20 ± 9.74 h. Besides, in data set [1] (setting [10]), the AUC0-24 was 38420 ± 29550 ng·h/mL, the Cmax is 2120 ± 1520 ng/mL and the T1/2 was 18.18 ± 5.74 h. In addition, the “RP2D (Western)” value in data set [2] was 150 mg QD. Further, in data set [3] (Day 1), the maximum concentration (Cmax) was 958 ± 457.19 ng/mL, the T1/2 was 25.92 ± 9.31 h and the Tmax was 6.00 ± 8.92 h. Besides, in data set [3] (Day 23 or 24), the peak concentration (Cmax) is 2384.33 ± 932.43 ng/mL, the T1/2 was 27.19 ± 9.07 h and the time to peak (Tmax) is 1.83 ± 0.41 h. Besides, in data set [4], the “RP2D (Japan)” value is reported as 150 mg QD. The MTD in data set [5] is on record as 150 mg QD.

For the compound `CO[C@H]1C[C@@H]2CC[C@@H](C)[C@@](O)(O2)C(=O)C(=O)N2CCCC[C@H]2C(=O)O[C@H]([C@H](C)C[C@@H]2CC[C@@H](OCCO)[C@H](OC)C2)CC(=O)[C@H](C)/C=C(\C)[C@@H](O)[C@@H](OC)C(=O)[C@H](C)C[C@H](C)/C=C/C=C/C=C/1C` [Everolimus], the “RP2D (Japan)” value in data set [4] is given as 10 mg QD.

With `CS(=O)(=O)CCNCc1ccc(-c2ccc3ncnc(Nc4ccc(OCc5cccc(F)c5)c(Cl)c4)c3c2)o1` [Lapatinib], the “RP2D (Western)” value in data set [2] was 1250 mg QD. In addition, the “RP2D (Japan)” value in data set [4] is 1500 mg QD.

Turning to `COc1cc2nccc(Oc3ccc(NC(=O)NC4CC4)c(Cl)c3)c2cc1C(N)=O` [Lenvatinib], the AUC0-24 in data set [1] (setting [6]) is 3913.8 ng·h/mL; in data set [1] (setting [7]), 4783.0 ng·h/mL; in data set [3] (Day 1), 3150 ng·h/mL; in data set [3] (Day 15), 4140 ng·h/mL. Moreover, the highest concentration (Cmax) in data set [1] (setting [6]) is 598.0 ng/mL; in data set [1] (setting [7]), 579.1 ng/mL; in data set [3] (Day 1), 418 ng/mL; in data set [3] (Day 15), 518 ng/mL. In addition, the T1/2 in data set [1] (setting [6]) was 5.3 h; in data set [1] (setting [7]) it was 5.8 h. In addition, the time of peak concentration (Tmax) in data set [1] (setting [6]) is 1.5 h; in data set [1] (setting [7]), 2.8 h; in data set [3] (Day 15) it was 2.0 h.

Turning to `Cc1ccc(Nc2nccc(N(C)c3ccc4c(C)n(C)nc4c3)n2)cc1S(N)(=O)=O` [Pazopanib], the “RP2D (Western)” value in data set [2] is on record as 800 mg QD.

As for `CNC(=O)c1cc(Oc2ccc(NC(=O)Nc3ccc(Cl)c(C(F)(F)F)c3)c(F)c2)ccn1` [Regorafenib], in data set [1] (setting [11]), the AUC0-24 is given as 58270 ng·h/mL, the highest concentration (Cmax) is recorded as 3904 ng/mL, the T1/2 is reported as 22.23 h and the time to peak (Tmax) is 5.033 h. The “RP2D (Western)” value in data set [2] is listed as 160 mg QD. For the same compound, the “RP2D (Japan)” value in data set [4] was 160 mg QD. Further, the MTD in data set [5] was 160 mg QD.

For the compound `CNC(=O)c1cc(Oc2ccc(NC(=O)Nc3ccc(Cl)c(C(F)(F)F)c3)cc2)ccn1` [Sorafenib], the “RP2D (Western)” value in data set [2] is listed as 400 mg BID. For the same compound, the “RP2D (Japan)” value in data set [4] is 400 mg BID.

Regarding `CCN(CC)CCNC(=O)c1c(C)[nH]c(/C=C2\C(=O)Nc3ccc(F)cc32)c1C` [Sunitinib], the AUC0-24 in data set [1] (setting [6]) is reported as 420 ng·h/mL; in data set [1] (setting [7]), 1296 ng·h/mL; in data set [3] (Day 1) it was 374 ng·h/mL; in data set [3] (Day 28), 1406 ng·h/mL. Besides, the Tmax in data set [1] (setting [6]) was 5.0 h; in data set [1] (setting [7]) it was 8.5 h; in data set [3] (Day 1) it was 7 h; in data set [3] (Day 28), 6 h. The “RP2D (Western)” value in data set [2] is 50 mg QD. The figures for the Cmax in data set [3] (Day 1) and in data set [3] (Day 28) were 22.8 ng/mL and 69.3 ng/mL, respectively. Besides, the “RP2D (Japan)” value in data set [4] is reported as 50 mg QD. Also, the MTD in data set [5] was 50 mg QD.

As for `COc1cc2c(Nc3ccc(Br)cc3F)ncnc2cc1OCC1CCN(C)CC1` [Vandetanib], in data set [2], the “RP2D (Western)” value is 300 mg QD. Besides, the “RP2D (Japan)” value in data set [4] is 300 mg QD.

Turning to `CCCS(=O)(=O)Nc1ccc(F)c(C(=O)c2c[nH]c3ncc(-c4ccc(Cl)cc4)cc23)c1F` [Vemurafenib], the Cmax is 61400 ng/mL in data set [1] (setting [8]) and 4800 ng/mL in data set [1] (in vivo). Also, the T1/2 in data set [1] (setting [8]) is reported as 34.1 h; in data set [3] (Day 1), 12.7 h; in data set [3] (Day 15), 60.8 h. In addition, the time to peak (Tmax) in data set [1] (in vivo) is recorded as 5.0 h. The “RP2D (Western)” value in data set [2] is given as 960 mg BID. The “RP2D (Japan)” value in data set [4] was 960 mg BID. Besides, in data set [5], the MTD is 960 mg BID.
